Measurements: PubChem BioAssay (NCI)
Where “and” joins values, the source holds several entries; their conditions need not be identical. Equal values may be shown once.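 Following 48 hours of exposure in 96-well plates, responses at five concentrations were used to interpolate endpoints linearly. The concentration for 50% growth inhibition is given as GI50. Definition used: TGI = concentration required for complete inhibition of growth.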

System: SN12K1 renal
Assay: DTP human tumour cell line panel, 48 h

Q: What does the source list for C(=N/NC1=NCCN1)/c1c2ccccc2c(/C=N\NC2=NCCN2)c2ccccc12?
A: GI50: 68.8 nM; TGI: 933 nM and 222 nM
